Assay results from PubChem BioAssay (NCI).
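Results reflect a 48-hour exposure of cells in 96-well plates to compound at five concentrations. At the GI50, growth is halved. At the TGI there is no net growth.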

Legend:
Assay in all cases: DTP human tumour cell line panel, 48 h
786-0 renal = tested on: 786-0 renal
A498 renal = tested on: A498 renal
A549 NSCLC = tested on: A549 NSCLC
ACHN renal = tested on: ACHN renal
BT-549 breast = tested on: BT-549 breast
CAKI-1 renal = tested on: CAKI-1 renal
CCRF-CEM leukemia = tested on: CCRF-CEM leukemia
COLO 205 colon = tested on: COLO 205 colon
DU-145 prostate = tested on: DU-145 prostate
EKVX NSCLC = tested on: EKVX NSCLC
HCC-2998 colon = tested on: HCC-2998 colon
HCT-116 colon = tested on: HCT-116 colon
HCT-15 colon = tested on: HCT-15 colon
HL-60(TB) leukemia = tested on: HL-60(TB) leukemia
HOP-62 NSCLC = tested on: HOP-62 NSCLC
HOP-92 NSCLC = tested on: HOP-92 NSCLC
HS 578T breast = tested on: HS 578T breast
HT29 colon = tested on: HT29 colon
IGROV1 ovarian = tested on: IGROV1 ovarian
K-562 leukemia = tested on: K-562 leukemia
KM12 colon = tested on: KM12 colon
LOX IMVI melanoma = tested on: LOX IMVI melanoma
M14 melanoma = tested on: M14 melanoma
MALME-3M melanoma = tested on: MALME-3M melanoma
MCF7 breast = tested on: MCF7 breast
MDA-MB-231 breast = tested on: MDA-MB-231 breast
MDA-MB-435 = tested on: MDA-MB-435
MDA-MB-468 breast = tested on: MDA-MB-468 breast
MOLT-4 leukemia = tested on: MOLT-4 leukemia
NCI-H226 lung = tested on: NCI-H226 lung
NCI-H23 lung = tested on: NCI-H23 lung
NCI-H460 lung = tested on: NCI-H460 lung
NCI-H522 lung = tested on: NCI-H522 lung
NCI/ADR-RES ovarian = tested on: NCI/ADR-RES ovarian
OVCAR-3 ovarian = tested on: OVCAR-3 ovarian
OVCAR-4 ovarian = tested on: OVCAR-4 ovarian
OVCAR-5 ovarian = tested on: OVCAR-5 ovarian
OVCAR-8 ovarian = tested on: OVCAR-8 ovarian
PC-3 prostate = tested on: PC-3 prostate
RPMI-8226 leukemia = tested on: RPMI-8226 leukemia
RXF 393 renal = tested on: RXF 393 renal
SF-268 CNS = tested on: SF-268 CNS
SF-295 CNS = tested on: SF-295 CNS
SF-539 CNS = tested on: SF-539 CNS
SK-MEL-2 melanoma = tested on: SK-MEL-2 melanoma
SK-MEL-28 melanoma = tested on: SK-MEL-28 melanoma
SK-MEL-5 melanoma = tested on: SK-MEL-5 melanoma
SK-OV-3 ovarian = tested on: SK-OV-3 ovarian
SN12C renal = tested on: SN12C renal
SNB-19 CNS = tested on: SNB-19 CNS
SNB-75 CNS = tested on: SNB-75 CNS
SW-620 colon = tested on: SW-620 colon
T-47D breast = tested on: T-47D breast
TK-10 renal = tested on: TK-10 renal
U251 CNS = tested on: U251 CNS
UACC-257 melanoma = tested on: UACC-257 melanoma
UACC-62 melanoma = tested on: UACC-62 melanoma
UO-31 renal = tested on: UO-31 renal

`CCOc1ccccc1NC(=O)N/C(N)=N/c1nc2ccccc2s1` gave a GI50 (786-0 renal) of 29.6 nM, a TGI (786-0 renal) of 13300 nM and a GI50 (A498 renal) of 22100 nM. For the same compound, the TGI (A498 renal) was 44600 nM, the GI50 (A549 NSCLC) was 53.2 nM and the TGI (A549 NSCLC) was greater than 53100 nM. It also gave a GI50 (ACHN renal) of less than 15.2 nM, a TGI (ACHN renal) of 22700 nM and a GI50 (BT-549 breast) of 24.6 nM. The TGI (BT-549 breast) was 126 nM, the GI50 (CAKI-1 renal) was less than 14.1 nM and the TGI (CAKI-1 renal) was greater than 49000 nM. It also gave a GI50 (CCRF-CEM leukemia) of 28.9 nM, a TGI (CCRF-CEM leukemia) greater than 32500 nM and a GI50 (COLO 205 colon) of 30.1 nM. It also gave a TGI (COLO 205 colon) of 106 nM, a GI50 (DU-145 prostate) of 28.7 nM and a TGI (DU-145 prostate) of 11900 nM. The GI50 (EKVX NSCLC) was 45.8 nM, the TGI (EKVX NSCLC) was 35000 nM and the GI50 (HCC-2998 colon) was 24.2 nM. For the same compound, the TGI (HCC-2998 colon) was 10900 nM, the GI50 (HCT-116 colon) was less than 15.7 nM and the TGI (HCT-116 colon) was 310 nM. The GI50 (HCT-15 colon) was less than 16.8 nM, the TGI (HCT-15 colon) was 12600 nM and the GI50 (HL-60(TB) leukemia) was 17.7 nM. The TGI (HL-60(TB) leukemia) was 59.6 nM, the GI50 (HOP-62 NSCLC) was less than 20 nM and the TGI (HOP-62 NSCLC) was 20000 nM. For the same compound, the GI50 (HOP-92 NSCLC) was 6330 nM, the TGI (HOP-92 NSCLC) was greater than 58700 nM and the GI50 (HS 578T breast) was less than 10.7 nM. The TGI (HS 578T breast) was greater than 78600 nM, the GI50 (HT29 colon) was 21 nM and the TGI (HT29 colon) was 67.3 nM. The GI50 (IGROV1 ovarian) was 27.4 nM, the TGI (IGROV1 ovarian) was 30100 nM and the GI50 (K-562 leukemia) was less than 10 nM. For the same compound, the TGI (K-562 leukemia) was greater than 35600 nM, the GI50 (KM12 colon) was less than 13.8 nM and the TGI (KM12 colon) was greater than 45800 nM. It also gave a GI50 (LOX IMVI melanoma) of less than 14.8 nM, a TGI (LOX IMVI melanoma) of 15100 nM and a GI50 (M14 melanoma) of less than 14 nM. It also gave a TGI (M14 melanoma) of 23200 nM, a GI50 (MALME-3M melanoma) of less than 18.5 nM and a TGI (MALME-3M melanoma) of 45100 nM. It also gave a GI50 (MCF7 breast) of 26.5 nM, a TGI (MCF7 breast) of 23300 nM and a GI50 (MDA-MB-231 breast) of less than 16.2 nM. It also gave a TGI (MDA-MB-231 breast) of 744 nM, a GI50 (MDA-MB-435) of less than 10 nM and a TGI (MDA-MB-435) of 14.6 nM. For the same compound, the GI50 (MDA-MB-468 breast) was 23.3 nM, the TGI (MDA-MB-468 breast) was 61.5 nM and the GI50 (MOLT-4 leukemia) was 38.8 nM. It also gave a TGI (MOLT-4 leukemia) greater than 33500 nM, a GI50 (NCI-H226 lung) of 43.5 nM and a TGI (NCI-H226 lung) of 1480 nM. The GI50 (NCI-H23 lung) was less than 18.6 nM, the TGI (NCI-H23 lung) was 23000 nM and the GI50 (NCI-H460 lung) was 26.4 nM. It also gave a TGI (NCI-H460 lung) of 10900 nM, a GI50 (NCI-H522 lung) of less than 10 nM and a TGI (NCI-H522 lung) of 20.1 nM. The GI50 (NCI/ADR-RES ovarian) was less than 10 nM, the TGI (NCI/ADR-RES ovarian) was 29.8 nM and the GI50 (OVCAR-3 ovarian) was less than 10 nM. It also gave a TGI (OVCAR-3 ovarian) of 11400 nM, a GI50 (OVCAR-4 ovarian) of 11100 nM and a TGI (OVCAR-4 ovarian) of 63600 nM. The GI50 (OVCAR-5 ovarian) was 37.8 nM, the TGI (OVCAR-5 ovarian) was greater than 41000 nM and the GI50 (OVCAR-8 ovarian) was less than 17.2 nM. For the same compound, the TGI (OVCAR-8 ovarian) was 26900 nM, the GI50 (PC-3 prostate) was 25.2 nM and the TGI (PC-3 prostate) was greater than 74600 nM. The GI50 (RPMI-8226 leukemia) was 37.1 nM, the TGI (RPMI-8226 leukemia) was greater than 39700 nM and the GI50 (RXF 393 renal) was less than 12.9 nM. It also gave a TGI (RXF 393 renal) of 40000 nM, a GI50 (SF-268 CNS) of 84.6 nM and a TGI (SF-268 CNS) greater than 100000 nM. It also gave a GI50 (SF-295 CNS) of less than 16.4 nM, a TGI (SF-295 CNS) of 13800 nM and a GI50 (SF-539 CNS) of less than 11.9 nM. For the same compound, the TGI (SF-539 CNS) was less than 22.5 nM, the GI50 (SK-MEL-2 melanoma) was 25.9 nM and the TGI (SK-MEL-2 melanoma) was 42500 nM. The GI50 (SK-MEL-28 melanoma) was 14500 nM, the TGI (SK-MEL-28 melanoma) was greater than 100000 nM and the GI50 (SK-MEL-5 melanoma) was less than 14.1 nM. For the same compound, the TGI (SK-MEL-5 melanoma) was 34.1 nM, the GI50 (SK-OV-3 ovarian) was 49.1 nM and the TGI (SK-OV-3 ovarian) was greater than 77400 nM. It also gave a GI50 (SN12C renal) of 27.2 nM, a TGI (SN12C renal) of 13800 nM and a GI50 (SNB-19 CNS) of 31 nM. It also gave a TGI (SNB-19 CNS) of 53800 nM, a GI50 (SNB-75 CNS) of less than 10 nM and a TGI (SNB-75 CNS) greater than 69100 nM. It also gave a GI50 (SW-620 colon) of less than 17.5 nM, a TGI (SW-620 colon) greater than 42300 nM and a GI50 (T-47D breast) of 13900 nM. For the same compound, the TGI (T-47D breast) was greater than 100000 nM, the GI50 (TK-10 renal) was greater than 39400 nM and the TGI (TK-10 renal) was greater than 100000 nM. The GI50 (U251 CNS) was less than 16.4 nM, the TGI (U251 CNS) was 13700 nM and the GI50 (UACC-257 melanoma) was 32000 nM. For the same compound, the TGI (UACC-257 melanoma) was greater than 100000 nM, the GI50 (UACC-62 melanoma) was less than 10 nM and the TGI (UACC-62 melanoma) was greater than 55600 nM. For the same compound, the GI50 (UO-31 renal) was less than 30.8 nM and the TGI (UO-31 renal) was greater than 88600 nM.
